# Experimental data: PMC6272192, “Synthesis and Biological Evaluation of N-Alkyl-3-(alkylamino)-pyrazine-2-carboxamides” (Molecules, 2015)
# Like-named read-outs stand apart in the source and are kept apart here.
# Experiments:
# [1] = tested on: M. tuberculosis H37Rv; test: in vitro antimycobacterial activity, microdilution panel method; assay type: cell-based, Mycobacterium tuberculosis; settings: for MIC: Mycobacterium tuberculosis
# [2] = tested on: photosystem 2 photosynthetic electron transport (PET) in spinach chloroplasts; test: inhibition of photosynthetic electron transport (PET) in spinach chloroplasts (Hill reaction, DCPIP); assay type: biochemical, Spinacia oleracea L.; settings: for IC50 / PET-inhibiting activity (in words): spinach chloroplasts
# Protocol: Chloroplasts were prepared from spinach (Spinacia oleracea L.) according to Masarovicova and Kralova. The inhibition of photosynthetic electron transport (PET) in spinach chloroplasts was determined spectrophotometrically (Genesys 6, Thermo Electron Scientific Instruments, Madison, WI, USA), using an artificial electron acceptor 2,6-dichlorophenol-indophenol (DCPIP) according to Kralova et al., and the rate of photosynthetic electron transport (PET) was monitored as a photoreduction of DCPIP. The measurements were carried out in phosphate buffer (0.02 mol/L, pH 7.2) containing sucrose (0.4 mol/L), MgCl2 (0.005 mol/L) and NaCl (0.015 mol/L). The chlorophyll content was 30 mg/L in these experiments and the samples were irradiated (~100 W/m^2 with 10 cm distance) with a halogen lamp (250 W) using a 4 cm water filter to prevent warming of the samples (suspension temperature 22 °C). The studied compounds were dissolved in DMSO due to their limited water solubility. […] The inhibitory efficiency of the studied compounds was expressed by IC50 values, i.e., by molar concentration of the compounds causing 50% PET inhibition relative to the untreated control.
# [3] = determination of lipophilicity by HPLC (log k); settings: HPLC capacity factor, C18 column, MeOH 70% / H2O 30%
# Text: Instrumentation: Agilent Technologies 1200 SL liquid chromatograph with Diode-array Detector SL G1315C (Agilent Technologies Inc., Colorado Springs, CO, USA); pre-column ZORBAX XDB-C18 5 μm, 4 × 4 mm, Part No. 7995118-504 (Agilent Technologies Inc.) and column ZORBAX Eclipse XDB-C18 5 μm, 4.6 × 250 mm, Part No. 7995118-585 (Agilent Technologies Inc.). The separation process was controlled by Agilent ChemStation, version B.04.02 extended by spectral module (Agilent Technologies Inc.). Mobile phase consisted of MeOH (HPLC grade, 70%) and H2O (HPLC-Milli-Q Grade, 30%). Conditions: Flow rate 1.0 mL/min, sample injection volume 20 μL, column temperature 30 °C, detection wavelength 210 nm, monitor wavelength 270 nm. Retention times (tR) were measured in minutes. The dead time of the system (tD) was determined as the retention time of KI methanol solution. Capacity factors k for individual compounds were calculated according to the formula k = (tR − tD)/tD. Log k, calculated from the capacity factor k, is used as the lipophilicity index converted to log scale.
# [4] = tested on: Trichophyton mentagrophytes; test: in vitro antifungal activity, microdilution broth method; assay type: cell-based; settings: for MIC: Trichophyton mentagrophytes
# Protocol: Antifungal evaluation was performed using microdilution broth method against 8 fungal strains (Candida albicans ATCC 44859, C. tropicalis 156, C. krusei E28, C. glabrata 20/I, Trichosporon asahii 1188, Aspergillus fumigates 231, Absidia corymbifera 272 and Trichophyton mentagrophytes 445). Compounds were dissolved in DMSO and diluted in a twofold manner with RPMI 1640 medium with glutamine buffered to pH 7.0 (3-morpholinopropane-1-sulfonic acid). […] Static incubation was performed in the dark and humid, at 35 °C for 24 and 48 h (respectively 72 and 120 h for Trichophyton mentagrophytes). The MIC was defined as 80% inhibition of control (50% IC for filament fungi). Drug-free controls were included. The standards were amphotericin B, voriconazole, nystatin and fluconazole.
# [5] = tested on: M. tuberculosis H37Rv; settings: previously prepared 3-alkylaminopyrazine-2-carboxamides; cited from earlier work
# [6] = tested on: Staphylococcus epidermidis; test: in vitro antibacterial activity, microdilution broth method; assay type: cell-based
# Protocol: Microdilution broth method. Antibacterial evaluation was performed against bacterial strains from Czech Collection of Microorganisms (Brno, Czech Republic) (Staphylococcus aureus CCM 4516/08, Escherichia coli CCM 4517, Pseudomonas aeruginosa CCM 1961) or clinical isolates from Department of Clinical Microbiology, University Hospital and Faculty of Medicine in Hradec Králové, Charles University in Prague, Czech Republic (Staphylococcus aureus H 5996/08-methicilin resistant (MRSA), Staphylococcus epidermidis H 6966/08, Enterococcus sp. J 14365/08, Klebsiella pneumoniae D 11750/08, Klebsiella pneumoniae J 14368/08-ESBL positive). All strains were subcultured on Mueller-Hinton agar (MHA) (Difco/Becton Dickinson, Detroit, MI, USA) at 35 °C and maintained on the same medium at 4 °C. The compounds were dissolved in DMSO, and the antibacterial activity was determined in Mueller-Hinton liquid broth (Difco/Becton Dickinson), buffered to pH 7.0. Controls consisted of medium and DMSO alone. […] The standards were neomycin, bacitracin, penicillin G, ciprofloxacin and phenoxymethylpenicilin.
# [7] = tested on: photosystem 2 photosynthetic electron transport (PET) in spinach chloroplasts; set-up: method as in doi:10.3139/113.110079; settings: literature surfactants; read-out: IC50 related to PET inhibition; cited from earlier work
# [8] = tested on: Vero cells; test: in vitro cytotoxicity assay (MCC); assay type: cell-based, African Green Monkey; settings: highest tested concentration 100 µmol/L
# [9] = 336 h, Middlebrook 7H9, Alamar Blue after 14 days, read-out: MIC M. tuberculosis
# [10] = DCPIP photoreduction, read-out: IC50 (PET-inhibiting activity)
# [11] = Middlebrook 7H9, Alamar Blue after 14 days
Compound,"MIC [1, 9] [µg/mL]","IC50 [2, 10] [µM]",log k [3],further results
"CCCCNc1nccnc1C(=O)NCC [Compound 20, 3-(Butylamino)-N-ethylpyrazine-2-carboxamide]",> 100,1090,0.617,
"CCCCNc1nccnc1C(=O)NC [Compound 12, 3-(Butylamino)-N-methylpyrazine-2-carboxamide]",100,523,0.401,
"CCCCCNc1nccnc1C(=O)NC [Compound 13, N-Methyl-3-(pentylamino)pyrazine-2-carboxamide]",50,544,0.638,MIC [4]: 250 µM
"CNC(=O)c1nccnc1NC [Compound 9, N-Methyl-3-(methylamino)pyrazine-2-carboxamide]",> 100,5650,−0.279,
CCCCCCCNc1nccnc1C(N)=O [3-heptyamino-],,,,MIC [5]: 50 µg/mL
"CCCCNC(=O)c1nccnc1NCCCC [Compound 26, N-Butyl-3-(butylamino)pyrazine-2-carboxamide]",50,202,1.077,
"CCCCCCCNC(=O)c1nccnc1NCCCCCCC [Compound 29, N-Heptyl-3-(heptylamino)pyrazine-2-carboxamide]",> 100,1120,2.503,
"CCCCCCNc1nccnc1C(=O)NCC [Compound 22, N-Ethyl-3-(hexylamino)pyrazine-2-carboxamide]",50,78,1.094,MIC [4]: 125 µM
"CCCCCNc1nccnc1C(=O)NCC [Compound 21, N-Ethyl-3-(pentylamino)pyrazine-2-carboxamide]",50,301,0.855,"MIC M. tuberculosis [1, 11]: 50 µg/mL; MIC [4]: 250 µM; IC50 (PET) fold higher than that of compound 14 ([2]; ratio to IC50 of 14): 2.4 fold"
"CCCNc1nccnc1C(=O)NCC [Compound 19, N-Ethyl-3-(propylamino)pyrazine-2-carboxamide]",> 100,2050,0.382,MIC [6]: 250 µM; IC50 (PET) fold higher than that of compound 12 ([2]; ratio to IC50 of 12): 3.9 fold
"CCCCCCNC(=O)c1nccnc1Cl [Compound 6, 3-Chloro-N-hexylpyrazine-2-carboxamide]",100,1070,0.239,MIC [4]: 250 µM
"CCCCNC(=O)c1nccnc1Cl [Compound 4, N-Butyl-3-chloropyrazine-2-carboxamide]",> 100,4010,−0.209,
"CCCCCCCNC(=O)c1nccnc1Cl [Compound 7, 3-Chloro-N-heptylpyrazine-2-carboxamide]",100,256,0.470,MIC [4]: 125 µM
"CN(C)CCNC(=O)C(=O)NCCN(C)C [N,N'-bis(2-dimethylaminoethyl)ethanediamide]",,,,IC50 [7]: 4000 µM
"CCCCCNC(=O)c1nccnc1Cl [Compound 5, 3-Chloro-N-pentylpyrazine-2-carboxamide]",> 100,1390,0.012,
"CCCCCCNC(=O)c1nccnc1NCCCCCC [Compound 28, N-Hexyl-3-(hexylamino)pyrazine-2-carboxamide]",> 100,272,2.041,minimum compound concentration (MCC) causing microscopically detectable alteration of normal cell morphology [8]: > 4 µmol/L
"CCCCCCCNc1nccnc1C(=O)NCC [Compound 23, N-Ethyl-3-(heptylamino)pyrazine-2-carboxamide]",50,48,1.337,MIC [4]: 125 µM; MIC [6]: 250 µM

Compound,"MIC [1, 9] [µg/mL]","IC50 [2, 10] [µM]",log k [3],further results
"CCCCCCCCC[N+](C)(C)CCNC(=O)CCC(=O)NCC[N+](C)(C)CCCCCCCCC [3,8-diaza-4,7-dioxodecane-1,10-diylbis(nonyldimethyl)ammonium bromide]",,,,IC50 [7]: 1740 µM
"CCCNC(=O)c1nccnc1Cl [Compound 3, 3-Chloro-N-propylpyrazine-2-carboxamide]",> 100,,−0.414,PET-inhibiting activity (in words) [2]: inactive
"CCCCCCNc1nccnc1C(=O)NC [Compound 14, 3-(Hexylamino)-N-methylpyrazine-2-carboxamide]",25,125,0.876,"MIC M. tuberculosis [1, 11]: 25 µg/mL; MIC [4]: 250 µM"
"CCCCCCCCNC(=O)c1nccnc1Cl [Compound 8, 3-Chloro-N-octylpyrazine-2-carboxamide]",50,55,0.702,MIC Trichophyton mentagrophytes [4]: 62.5 µM; MIC [4]: 62.5 µM
"NNC(=O)c1ccncc1 [INH, Isoniazid, reference compound]",0.1 to 0.39,,,"MIC M. tuberculosis [1, 11]: 0.1 to 0.39 µg/mL; MIC ([1]; conversion of the μg/mL value, read-out: MIC M. tuberculosis in molar units): 0.7 to 2.9 µM"
"CCNc1nccnc1C(=O)NC [Compound 10, 3-(Ethylamino)-N-methylpyrazine-2-carboxamide]",> 100,,−0.052,
"CCNC(=O)c1nccnc1Cl [Compound 2, 3-Chloro-N-ethylpyrazine-2-carboxamide]",> 100,,−0.591,PET-inhibiting activity (in words) [2]: inactive
"CCCNc1nccnc1C(=O)NC [Compound 11, N-Methyl-3-(propylamino)pyrazine-2-carboxamide]",> 100,,0.166,
"CNC(=O)c1nccnc1Cl [Compound 1, 3-Chloro-N-methylpyrazine-2-carboxamide]",> 100,,−0.747,PET-inhibiting activity (in words) [2]: inactive
"CCCNC(=O)c1nccnc1NCCC [Compound 25, N-Propyl-3-(propylamino)pyrazine-2-carboxamide]",> 100,1300,0.600,
"CCCCCCCNc1nccnc1C(=O)NC [Compound 15, 3-(Heptylamino)-N-methylpyrazine-2-carboxamide]",25,65,1.118,MIC [4]: 125 µM; MIC [6]: 250 µM
"CCNC(=O)c1nccnc1NCC [Compound 18, N-Ethyl-3-(ethylamino)pyrazine-2-carboxamide]",> 100,,0.163,PET-inhibiting activity (in words) [2]: not active
CCCCCCNc1nccnc1C(N)=O [3-hexylamino-],,,,MIC [5]: 50 µg/mL
"CCNC(=O)c1nccnc1NC [Compound 17, N-Ethyl-3-(methylamino)pyrazine-2-carboxamide]",> 100,,−0.063,PET-inhibiting activity (in words) [2]: not active
"CCCCCCCCNC(=O)c1nccnc1NCCCCCCCC [Compound 30, N-Octyl-3-(octylamino)pyrazine-2-carboxamide]",> 100,752,2.981,minimum compound concentration (MCC) causing microscopically detectable alteration of normal cell morphology [8]: 100 µmol/L
"CN(C)C(=O)Nc1ccc(Cl)c(Cl)c1 [DCMU, 3-(3,4-dichlorophenyl)-1,1-dimethylurea, reference compound]",,2,,"IC50 ([2]; read-out: IC50 (PET inhibition, Hill reaction)): ~1.9 µM"
CCCCCCCCNc1nccnc1C(N)=O [3-octylaminopyrazine-2-carboxamide],,,,MIC [5]: 50 µg/mL
